Assay results taken from patent US5719130A, “Anthracycline derivative having a trifluoromethylated sugar” (Zaidan Hojin Biseibutsu Kagaku Kenkyu Kai, priority 1994, dated 1998).
Values after ≈ are worked out from the molar mass of the structure shown. “Also recorded” adds a separate entry of the source. Like-named read-outs stand apart in the source and are kept apart here.

Key:
[1] = system: adriamycin-resistant P388 cells (P388/ADR); experiment: In vitro inhibition of growth of adriamycin-resistant P388 cells, 72 hours (Test Example 3); type: cell-based, mouse; settings: for IC50: Mus musculus, P388/ADR, 72 hours; for growth inhibition of P388/ADR cell (in words): compared with adriamycin, FT-DM, FT-ADM
Procedure: (§1) Furthermore, in order to estimate the antitumor activities of Compound (a) and Compound (b) of this invention represented by the general formula (I), as well as the adriamycinone derivative represented by the formula (II) (namely, Compound (c) of this invention), some "in vitro" tests for inhibiting proliferation of cancer cells were conducted as shown below.
(§2) The above-mentioned Compound (a), Compound (b) or Compound (c) according to this invention were added at varying concentrations to mouse leukemia, P388 cells or adriamycin-resistant P388 cells (P388/ADR) which had been incubated in test tubes containing an appropriate culture medium. The incubation of the tumor cells were then continued for 72 hours from the addition of the test compound, and determination was made to evaluate such concentrations of the test compound which could inhibit the growth of the leukemia cells by 50% (namely, IC50' ng/ml). FT-DM, FT-ADM and adriamycin (as the hydrochloride) were used as comparative compounds and were tested in the same manner as above.

[2] = system: Leukemia L-1210 cells; experiment: Antitumor activity against leukemia L-1210 in CDF1 mice, 60-day observation (Test Example 1); type: in vivo, mouse; settings: for % Increase in life-span (T/C, %): 9 days, 60 d observation, '>' = at least one of four mice survived 60 days; for development of toxicity (in words): 2.5 to 5 mg/kg/day for daunomycin, adriamycin, 0.3 to 1.25 mg/kg/day for Compound (b), low dosages for formula (I)
Procedure: Thus, to evaluate the antitumor effects of the new compounds of this invention against experimental tumors in animals, CDF1 mice (four mice per group) were intraperitoneally transplanted with cells of Leukemia L-1210 at an amount of 1×10^5 cells/mouse. Since an elapsed time of 24 hours from the transplantation of the leukemia cells, a test compound according to this invention was administered intraperitoneally to the mice under test for 9 consecutive days once per day. […] While, mice of the control group (the untreated group) were administered with only physiological saline after the transplantation of the L-1210 cells. During the observation period, the numbers of the surviving mice in the treated group and in the control group were counted, and the mean survival days of mice in the treated group and in the control group were then calculated. From the mean survival day (C) of the untreated mice of the control group and the mean survival day (T) of the treated mice of the treated group, there were evaluated percentages (%) of the increase in the life-span of the treated mice, as T/C %. For a comparison purpose, 7-O-(2,6-dideoxy-2-fluoro-α-L-talopyranosyl)daunomycinone (abbreviation: FT-DM); 7-O-(2,6-dideoxy-2-fluoro-α-L-talopyranosyl)adriamycinone (abbreviation: FT-ADM); daunomycin and adriamycin were also tested in the same manner as above. Incidentally, the mean survival day of mice of the control group (the untreated group) was amounting to 8 to 9 days, and the mean survival day of mice of the comparative groups having received the administration of adriamycin was varying dependently on the dosage of adriamycin.

[3] = system: P388 cells; experiment: In vitro inhibition of growth of P388 cells, 72 hours (Test Example 3); type: cell-based, mouse; settings: for IC50: Mus musculus; for antitumor activity against P388 cell (in words): compared with other compounds
Procedure: as §1, §2

[4] = system: Leukemia L-1210 cells; experiment: Antitumor activity against leukemia L-1210 in CDF1 mice, 30-day observation (Test Example 2); type: in vivo, mouse; settings: for mice surviving 30 days / mice tested / % Increase in life-span (T/C, %): 9 days; for % Increase in life-span (T/C, %): 30 d observation, '>' = at least one of four mice survived 30 days
Procedure: Since an elapsed time of 24 hours from the transplantation of the leukemia cells, Compound (c) of this invention was administered intraperitoneally to the mice under test for 9 consecutive days once per day. […] While, mice of the control group (the untreated group) were administered with only physiological saline after the transplantation of the L-1210 cells. During the observation period, the numbers of the surviving mice in the treated group and the control group were counted, and the mean survival days of mice in the treated group and in the control group were then calculated. From the mean survival day (C) of the untreated mice of the control group and the mean survival day (T) of the treated mice of the treated group, there were evaluated percentages (%) of the increase in the life-span of the treated mice as T/C %. For a comparison purpose, adriamycin was also tested in the same manner as above.

[5] = human, in vivo; cited from earlier work
[6] = 0.3 mg/kg/day to 1.25 mg/kg/day, about 300% or more

Row | Structure (SMILES) | IC50 [1] | growth inhibition of P388/ADR cell (in words) [1] | antitumor activity in vivo (in words) [2] | % Increase in life-span (T/C, %) ([2]; 0.15 mg/kg/day i.p.) | % Increase in life-span (T/C, %) ([2]; 0.3 mg/kg/day i.p.) | % Increase in life-span (T/C, %) ([2]; 0.6 mg/kg/day i.p.) | % Increase in life-span (T/C, %) ([2]; 1.25 mg/kg/day i.p.) | % Increase in life-span (T/C, %) ([2]; 2.5 mg/kg/day i.p.) | % Increase in life-span (T/C, %) ([2]; 5 mg/kg/day i.p.) | development of toxicity (in words) [2] | IC50 ([3]; P388, 72 hours, read-out: IC50) | antitumor activity against P388 cell (in words) [3] | further results
1 | COc1cccc2c1C(=O)c1c(O)c3c(c(O)c1C2=O)C[C@@](O)(C(C)=O)C[C@@H]3O[C@@H]1O[C@@H](C(F)(F)F)[C@@H](O)[C@@H](O)[C@H]1F [Compound (a), 7-O-(2,6-dideoxy-2,6,6,6-tetrafluoro-α-L-talopyranosyl)daunomycinone] | 0.028 µg/mL (≈ 0.0466 µM) | can inhibit the growth of P388/ADR cell at the remarkedly lower concentrations than adriamycin; also recorded: at the substantially same concentrations as or at the lower concentrations than FT-DM and FT-ADM | much higher therapeutic effects against the L-1210 leukemia than daunomycin; also recorded: at low dosages of 0.6 to 1.25 mg/kg exhibited much higher therapeutic effects than FT-DM | 106% | 119% | 132% | 294% | 210% | 158% | – | – | – | IC50 ([3]; P388, 72 h): < 0.0098 µg/mL
2 | COc1cccc2c1C(=O)c1c(O)c3c(c(O)c1C2=O)C[C@@](O)(C(=O)CO)C[C@@H]3O[C@@H]1O[C@@H](C(F)(F)F)[C@@H](O)[C@@H](O)[C@H]1F [Compound (b), 7-O-(2,6-dideoxy-2,6,6,6-tetrafluoro-α-L-talopyranosyl)adriamycinone] | 0.043 µg/mL (≈ 0.0698 µM) | can inhibit the growth of P388/ADR cell at the remarkedly lower concentrations than adriamycin; also recorded: at the substantially same concentrations as or at the lower concentrations than FT-DM and FT-ADM | remarkedly higher antitumor effects in mice than FT-ADM; also recorded: extraordinarily higher anticancer or antitumor activities than those of adriamycin; also recorded: enhanced anticancer or antitumor activities over the whole range of low dosages of from 0.15 to 1.25 mg/kg of Compound (b), as compared with the comparative drug, FT-ADM | 144% | > 407% | > 459% | > 348% | 233% | 128% | not accompanied by development of toxicity | < 0.0098 µg/mL | to a substantially same degree as that of FT-ADM | percentages of increase in the life-span [2, 6]: ≥ 300%; survival for 60 days / cure (in words) ([2]; 0.3 to 1.25 mg/kg): some cases of the complete curing of the L-1210 cell-inoculated mice; also recorded: the mouse which could survive for 60 days (namely, the mouse as fully cured from the leukemia) can be observed
3 | COc1cccc2c1C(=O)c1c(O)c3c(c(O)c1C2=O)C[C@@](O)(C(=O)CO)C[C@@H]3O[C@H]1C[C@H](O)[C@H](O)[C@H](C(F)(F)F)O1 [Compound (c), 7-O-(2,6-dideoxy-6,6,6-trifluoro-α-L-lyxo-hexopyranosyl)adriamycinone] | 0.17 µg/mL (≈ 0.284 µM) | higher antitumor activities than adriamycin | – | – | – | – | – | – | – | – | < 0.0098 µg/mL | to a substantially same degree as that of Compound (b) | concentration inhibiting growth of P388/ADR (IC50) relative to that of adriamycin ([1]; 1/3-folds lower than that of adriamycin): 1/3; mice surviving 30 days / mice tested ([4]; 0.15 mg/kg/day i.p.): 3/4; % Increase in life-span (T/C, %) ([4]; 0.15 mg/kg/day i.p.): > 335%; mice surviving 30 days / mice tested ([4]; 0.3 mg/kg/day i.p.): 3/4; % Increase in life-span (T/C, %) ([4]; 0.3 mg/kg/day i.p.): > 329%; percentages of increase in the life-span [4, 6]: ≥ 300%; mice surviving 30 days / mice tested ([4]; 0.6 mg/kg/day i.p.): 2/4; % Increase in life-span (T/C, %) ([4]; 0.6 mg/kg/day i.p.): > 283%; % Increase in life-span (T/C, %) ([4]; 1.25 mg/kg/day i.p.): 203%; % Increase in life-span (T/C, %) ([4]; 2.5 mg/kg/day i.p.): 194%; % Increase in life-span (T/C, %) ([4]; 5 mg/kg/day i.p.): 135%; complete curing (in words) ([4]; 0.3 to 1.25 mg/kg/day): some cases of the complete curing of the L-1210 cell-inoculated mice; development of toxicity (in words) ([4]; 0.3 to 1.25 mg/kg/day, low dosages): not accompanied by development of toxicity; antitumor activity in vivo (in words) ([4]; 0.6 to 0.15 mg/kg): very much higher anticancer or antitumor activities than those of adriamycin; mice which could survive for 30 days ([4]; amongst totally 12 test mice, 0.6 to 0.15 mg/kg): 8 mice
4 | COc1cccc2c1C(=O)c1c(O)c3c(c(O)c1C2=O)C[C@@](O)(C(C)=O)C[C@@H]3O[C@H]1C[C@H](N)[C@H](O)[C@H](C)O1 [Daunomycin, daunomycin] | – | – | – | 132% | 112% | 145% | 158% | 171% | 138% | accompanied by development of toxicity | – | – | serious side-effects (in words) [5]: serious side-effects such as leukocytopenia, alopecia, myocardiopathy and others
5 | COc1cccc2c1C(=O)c1c(O)c3c(c(O)c1C2=O)C[C@@](O)(C(=O)CO)C[C@@H]3O[C@@H]1O[C@@H](C)[C@@H](O)[C@@H](O)[C@H]1F [FT-ADM, 7-O-(2,6-dideoxy-2-fluoro-α-L-talopyranosyl)adriamycinone] | 0.0928 µg/mL (≈ 0.165 µM) | – | – | 127% | 182% | 185% | 275% | > 352% | > 740% | – | 0.0034 µg/mL (≈ 0.00604 µM) | – | –
6 | COc1cccc2c1C(=O)c1c(O)c3c(c(O)c1C2=O)C[C@@](O)(C(C)=O)C[C@@H]3O[C@@H]1O[C@@H](C)[C@@H](O)[C@@H](O)[C@H]1F [FT-DM, 7-O-(2,6-dideoxy-2-fluoro-α-L-talopyranosyl)daunomycinone] | 0.15 µg/mL (≈ 0.274 µM) | – | – | 105% | 105% | 125% | 171% | 217% | 184% | – | 0.033 µg/mL (≈ 0.0604 µM) | – | –
